Test results taken from US11957684B2, “Treatment of heavy menstrual bleeding associated with uterine fibroids” (Sumitomo Pharma Switzerland GmbH, priority 2016, dated 2024).

Legend:
Assay type in all cases: in vivo, human
[1] = system: LH, FSH, estradiol (E2), progesterone (P), CA125; assay: Example 8A: serum LH, FSH, E2, P and CA125; details: for week at which median serum E2 decreased to LLQ: Compound 1 40 mg, leuprolide acetate 3.75 mg/4 wk
From the text: Study participants were premenopausal (≥20 years) Japanese women with endometriosis (EM)-associated pain who completed a preceding 12-week study and were eligible to continue for an additional 12-week treatment were enrolled. The participants has confirmed normal regular menstrual cycles (25 to 38 days per cycle) and diagnosed to have EM and EM-related dysmenorrhea and pelvic pain of at least moderate severity as determined by the physician B&B scale. The primary endpoint was the safety including assessment of change in bone mineral density (BMD) using dual energy x-ray absorptiometry, adverse events, vital signs, weight, 12-lead electrocardiograms, and clinical laboratory tests. […] Baseline characteristics were similar between randomized patients and all patients who entered the extension study.

[2] = system: women with endometriosis; assay: Example 7: bone mineral density and serum hormones; details: for percent change of bone mineral density from baseline: 12 wk; for week from which median serum estradiol was below LLQ: Compound 1 40 mg, leuprolide acetate 3.75 mg/4 wk
From the text: Subjects were diagnosed with endometriosis within the 5 years before screening and had dysmenorrhea and pelvic pain, of which either 1 or both was at least “moderate” as determined by the investigator using the Biberoglu & Behrman (B&B) scale. […] Secondary endpoints included VAS score for pelvic pain, dysmenorrhea, and dyspareunia during the treatment period.

[3] = system: endometriosis; assay: Example 7 12-week study in endometriosis: efficacy (VAS, B&B, EHP-30); details: for Physician B&B, dysmenorrhea / Physician B&B, dyspareunia / Physician B&B, non-menstrual pelvic pain / change from baseline in EHP-30, Control and powerlessness / change from baseline in EHP-30, Self-image / change from baseline in EHP-30, emotional well-being / change from baseline in EHP-30, pain / change from baseline in EHP-30, social support: Week 12; for Modified (patient) B&B, deep dyspareunia / Modified (patient) B&B, dysmenorrhea / Modified (patient) B&B, non-menstrual pelvic pain / change from baseline in proportion of days with usage of analgesics: end of treatment
Experimental: Secondary endpoints included VAS score for pelvic pain, dysmenorrhea, and dyspareunia during the treatment period. […] Subjects recorded in the patient diary every day until the end of treatment. […] Designated examinations and evaluations were performed at each visit. As used in the examples, the VAS score was evaluated using a 100 mm scale. For pain intensity, the scale was anchored by “no pain” (score of 0) and “pain as bad as you can imagine” (score of 100). […] The above items were evaluated using a patient diary that was distributed by the sponsor. Subjects filled out the patient diary every day during the treatment period or until early termination. If taking prohibited analgesics, subjects recorded this fact in the patient diary along with the accompanying pain symptoms before use of analgesics. As used in the examples, pain during menstruation and pelvic pain unrelated to menstruation were evaluated using scores on the M-B&B and B&B. The M-B&B scores were recorded by subjects on the patient diary supplied by the sponsor. Subjects filled out the patient diary every day during the treatment period or until early termination. If taking prohibited analgesics, subjects recorded this fact in the patient diary along with the accompanying pain symptoms before use of analgesics. The investigator or subinvestigator assessed each patient's pain through interviews and filled out a B&B once a month. The items that were assessed are shown below. The M-B&B score included: dysmenorrhea (severe, moderate, mild, no pain, or no menstruation); pelvic pain (severe, moderate, mild, or no pain); deep dyspareunia (severe, moderate, mild, no pain, or no intercourse). The B&B score included: dysmenorrhea (severe, moderate, mild, none, or not applicable); dyspareunia (severe, moderate, mild, none, or not applicable); pelvic pain (severe, moderate, mild, or none); pelvic tenderness (severe, moderate, mild, or none); and induration (severe, moderate, mild, or none). As used in the examples, the EHP-30 score was obtained by subjects assessing and recording their own QOL using the EHP-30 questionnaire.

Compound: CONC(=O)Nc1ccc(-c2sc3c(c2CN(C)C)c(=O)n(-c2ccc(OC)nn2)c(=O)n3Cc2c(F)cccc2F)cc1 [Compound 1, N-(4-(1-(2,6-difluorobenzyl)-5-((dimethylamino)methyl)-3-(6-methoxy-3-pyridazinyl)-2,4-dioxo-1,2,3,4-tetrahydrothieno[2,3-d]pyrimidin-6-yl)phenyl)-N′-methoxyurea]
- median change in serum E2 from baseline ([1]; 10 mg, Week 24): 1.0 pg/mL
- median change in serum FSH from baseline ([1]; 10 mg, Week 24): −0.630 mIU/mL
- median change in serum LH from baseline ([1]; 10 mg, Week 24): 0.300 mIU/mL
- median change in serum progesterone (P) from baseline ([1]; 10 mg, Week 24): 0.000 ng/mL
- subjects with CA125 less than or equal to 35 U/mL ([1]; 10 mg, Week 24): 75.3%
- median change in serum E2 from baseline ([1]; 20 mg, Week 24): -9.0 pg/mL
- median change in serum FSH from baseline ([1]; 20 mg, Week 24): −0.990 mIU/mL
- median change in serum LH from baseline ([1]; 20 mg, Week 24): −0.785 mIU/mL
- median change in serum progesterone (P) from baseline ([1]; 20 mg, Week 24): 0.005 ng/mL
- subjects with CA125 less than or equal to 35 U/mL ([1]; 20 mg, Week 24): 81.1%
- median change in serum E2 from baseline ([1]; 40 mg, Week 24): -39.0 pg/mL
- median change in serum FSH from baseline ([1]; 40 mg, Week 24): −3.550 mIU/mL
- median change in serum LH from baseline ([1]; 40 mg, Week 24): −2.480 mIU/mL
- median change in serum progesterone (P) from baseline ([1]; 40 mg, Week 24): -0.080 ng/mL
- subjects with CA125 less than or equal to 35 U/mL ([1]; 40 mg, Week 24): 88.5%
- week at which median serum E2 decreased to LLQ [1]: 2 Week
- percent change of bone mineral density from baseline ([2]; 10 mg): −0.95±1.875%
- percent change of bone mineral density from baseline ([2]; 20 mg): −1.34±2.087%
- percent change of bone mineral density from baseline ([2]; 40 mg): −2.08±2.220%
- week from which median serum estradiol was below LLQ [2]: 2 Week
- Physician B&B, dysmenorrhea ([3]; 10 mg): −1.0
- Physician B&B, dyspareunia ([3]; 10 mg): −0.2
- Physician B&B, non-menstrual pelvic pain ([3]; 10 mg): −0.6
- change from baseline in EHP-30, Control and powerlessness ([3]; 10 mg): −13.7
- change from baseline in EHP-30, Self-image ([3]; 10 mg): −5.5
- change from baseline in EHP-30, emotional well-being ([3]; 10 mg): −8.3
- change from baseline in EHP-30, pain ([3]; 10 mg): −18.3
- change from baseline in EHP-30, social support ([3]; 10 mg): −6.6
- change from baseline in mean VAS score, pelvic pain ([3]; 10 mg, end of 12-wk treatment period): −6.168±9.1411 mm
- Modified (patient) B&B, deep dyspareunia ([3]; 10 mg): −0.08
- Modified (patient) B&B, dysmenorrhea ([3]; 10 mg): −0.48
- Modified (patient) B&B, non-menstrual pelvic pain ([3]; 10 mg): −0.21
- change from baseline in proportion of days with usage of analgesics ([3]; 10 mg): −6.6
- Physician B&B, dysmenorrhea ([3]; 20 mg): −1.5
- Physician B&B, dyspareunia ([3]; 20 mg): −0.2
- Physician B&B, non-menstrual pelvic pain ([3]; 20 mg): −0.8
- change from baseline in EHP-30, Control and powerlessness ([3]; 20 mg): −14.6
- change from baseline in EHP-30, Self-image ([3]; 20 mg): −6.3
- change from baseline in EHP-30, emotional well-being ([3]; 20 mg): −8.9
- change from baseline in EHP-30, pain ([3]; 20 mg): −17.8
- change from baseline in EHP-30, social support ([3]; 20 mg): −8.4
- change from baseline in mean VAS score, pelvic pain ([3]; 20 mg, end of 12-wk treatment period): −8.070±13.3707 mm
- Modified (patient) B&B, deep dyspareunia ([3]; 20 mg): −0.10
- Modified (patient) B&B, dysmenorrhea ([3]; 20 mg): −0.76
- Modified (patient) B&B, non-menstrual pelvic pain ([3]; 20 mg): −0.22
- change from baseline in proportion of days with usage of analgesics ([3]; 20 mg): −6.3
- change from baseline in mean VAS score, pelvic pain ([3]; 40 mg, Day 1-28): −3.761 mm
- change from baseline in mean VAS score, pelvic pain ([3]; 40 mg, Day 29-56): −8.960±9.8226 mm
- change from baseline in mean VAS score, pelvic pain ([3]; 40 mg, Day 57-84): −10.464±11.0995 mm
- Physician B&B, dysmenorrhea ([3]; 40 mg): −2.0
- Physician B&B, dyspareunia ([3]; 40 mg): −0.1
- Physician B&B, non-menstrual pelvic pain ([3]; 40 mg): −0.9
- change from baseline in EHP-30, Control and powerlessness ([3]; 40 mg): −17.2
- change from baseline in EHP-30, Self-image ([3]; 40 mg): −8.4
- change from baseline in EHP-30, emotional well-being ([3]; 40 mg): −10.4
- change from baseline in EHP-30, pain ([3]; 40 mg): −25.3
- change from baseline in EHP-30, social support ([3]; 40 mg): −6.8
- change from baseline in mean VAS score, pelvic pain ([3]; 40 mg, end of 12-wk treatment period): −10.418±11.0171 mm
- Modified (patient) B&B, deep dyspareunia ([3]; 40 mg): −0.07
- Modified (patient) B&B, dysmenorrhea ([3]; 40 mg): −1.16
- Modified (patient) B&B, non-menstrual pelvic pain ([3]; 40 mg): −0.33
- change from baseline in proportion of days with usage of analgesics ([3]; 40 mg): −10.1

Compound: CCNC(=O)[C@@H]1CCCN1C(=O)[C@H](CCCNC(=N)N)NC(=O)[C@H](CC(C)C)NC(=O)[C@@H](CC(C)C)NC(=O)[C@H](Cc1ccc(O)cc1)NC(=O)[C@H](CO)NC(=O)[C@H](Cc1c[nH]c2ccccc12)NC(=O)[C@H](Cc1c[nH]cn1)NC(=O)[C@@H]1CCC(=O)N1 [leuprolide acetate, reference compound]
- median change in serum E2 from baseline ([1]; 3.75 mg sc/4 wk, Week 24): -40.0 pg/mL
- median change in serum FSH from baseline ([1]; 3.75 mg sc/4 wk, Week 24): −2.730 mIU/mL
- median change in serum LH from baseline ([1]; 3.75 mg sc/4 wk, Week 24): −3.140 mIU/mL
- median change in serum progesterone (P) from baseline ([1]; 3.75 mg sc/4 wk, Week 24): -0.070 ng/mL
- percent change from baseline in CA125 concentration ([1]; 3.75 mg sc/4 wk, Week 24): −54.15±46.359%
- subjects with CA125 less than or equal to 35 U/mL ([1]; 3.75 mg sc/4 wk, Week 24): 88.9%
- week at which median serum E2 decreased to LLQ [1]: 4 Week
- week from which median serum estradiol was below LLQ [2]: 4 Week
- mean estradiol serum concentration four weeks after discontinuation ([2]; FIG. 162, relative to control (placebo)): only about one-fifth of the control
- Physician B&B, dysmenorrhea ([3]; 3.75 mg sc/4 wk): −2.1
- Physician B&B, dyspareunia ([3]; 3.75 mg sc/4 wk): −0.6
- Physician B&B, non-menstrual pelvic pain ([3]; 3.75 mg sc/4 wk): −1.1
- change from baseline in EHP-30, Control and powerlessness ([3]; 3.75 mg sc/4 wk): −19.6
- change from baseline in EHP-30, Self-image ([3]; 3.75 mg sc/4 wk): −6.1
- change from baseline in EHP-30, emotional well-being ([3]; 3.75 mg sc/4 wk): −8.8
- change from baseline in EHP-30, pain ([3]; 3.75 mg sc/4 wk): −23.2
- change from baseline in EHP-30, social support ([3]; 3.75 mg sc/4 wk): −6.8
- change from baseline in mean VAS score, pelvic pain ([3]; 3.75 mg sc/4 wk, end of 12-wk treatment period): −10.460±10.3013 mm
- Modified (patient) B&B, deep dyspareunia ([3]; 3.75 mg sc/4 wk): −0.36
- Modified (patient) B&B, dysmenorrhea ([3]; 3.75 mg sc/4 wk): −1.16
- Modified (patient) B&B, non-menstrual pelvic pain ([3]; 3.75 mg sc/4 wk): −0.41
- change from baseline in proportion of days with usage of analgesics ([3]; 3.75 mg sc/4 wk): −8.3
